Reference: PubChem BioAssay AID256 (DTP/NCI, 2004)
Toxic doses and inconclusive results are not listed. The calls were made as follows: active = survival T/C of 150% or more; inactive = T/C below 125% in these data.

Tested on: CD2F1 mice, L1210 leukemia ip, survival T/C
Assay: NCI In Vivo Anticancer Drug Screen. Data for tumor model L1210 Leukemia (intraperitoneal) in CD2F1 (CDF1) mice
Conditions: higher = longer survival
Method in brief: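 Transplantable tumor in mice; compound-treated vs vehicle-treated groups. Read-out = treated/control ratio of the measured endpoint.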

[1] = endpoint: mean survival time, dose: 100.0 mg/kg/injection, schedule: Q01DX001 (ip), vehicle: saline with Tween-80
[2] = endpoint: mean survival time, dose: 200.0 mg/kg/injection, schedule: Q01DX001 (ip), vehicle: saline with Tween-80
[3] = endpoint: mean survival time, dose: 400.0 mg/kg/injection, schedule: Q01DX001 (ip), vehicle: saline with Tween-80
[4] = endpoint: mean survival time, dose: 50.0 mg/kg/injection, schedule: Q01DX009 (ip), vehicle: saline
[5] = endpoint: mean survival time, dose: 100.0 mg/kg/injection, schedule: Q01DX009 (ip), vehicle: saline
[6] = endpoint: mean survival time, dose: 100.0 mg/kg/injection, schedule: Q04DX003 (ip), vehicle: saline with Tween-80
[7] = endpoint: mean survival time, dose: 25.0 mg/kg/injection, schedule: Q01DX009 (ip), vehicle: saline with Tween-80
[8] = endpoint: mean survival time, dose: 50.0 mg/kg/injection, schedule: Q01DX009 (ip), vehicle: saline with Tween-80
[9] = endpoint: mean survival time, dose: 100.0 mg/kg/injection, schedule: Q01DX009 (ip), vehicle: saline with Tween-80
[10] = endpoint: mean survival time, dose: 100.0 mg/kg/injection, schedule: Q04DX003 (ip), vehicle: saline
[11] = endpoint: mean survival time, dose: 12.5 mg/kg/injection, schedule: Q01DX009 (ip), vehicle: saline
[12] = endpoint: mean survival time, dose: 200.0 mg/kg/injection, schedule: Q01DX009 (ip), vehicle: saline with Tween-80
[13] = endpoint: mean survival time, dose: 400.0 mg/kg/injection, schedule: Q01DX009 (ip), vehicle: saline with Tween-80
[14] = endpoint: mean survival time, dose: 200.0 mg/kg/injection, schedule: Q04DX003 (ip), vehicle: saline with Tween-80
[15] = endpoint: mean survival time, dose: 400.0 mg/kg/injection, schedule: Q04DX003 (ip), vehicle: saline with Tween-80
[16] = endpoint: mean survival time, dose: 200.0 mg/kg/injection, schedule: Q04DX003 (ip), vehicle: saline
[17] = endpoint: mean survival time, dose: 400.0 mg/kg/injection, schedule: Q04DX003 (ip), vehicle: saline
[18] = endpoint: mean survival time, dose: 12.5 mg/kg/injection, schedule: Q01DX009 (ip), vehicle: saline with Tween-80

Measured: T/C

CCCC1(CCC)NC(=O)NC1=O
inactive: endpoint: mean survival time, dose: 100.0 mg/kg/injection, schedule: Q04DX003 (ip), vehicle: other 102 % of control | endpoint: mean survival time, dose: 200.0 mg/kg/injection, schedule: Q04DX003 (ip), vehicle: other 102 % of control

CC(=O)N(N)c1ccccc1
inactive: [1] 105 % of control | [2] 109 % of control | [3] 105 % of control

O=C1C=C(Cl)C(=O)N1c1cccc(Cl)c1
inactive: endpoint: mean survival time, dose: 6.25 mg/kg/injection, schedule: Q04DX003 (ip), vehicle: saline with Tween-80 104 % of control | endpoint: mean survival time, dose: 12.5 mg/kg/injection, schedule: Q04DX003 (ip), vehicle: saline with Tween-80 95 % of control | endpoint: mean survival time, dose: 25.0 mg/kg/injection, schedule: Q04DX003 (ip), vehicle: saline with Tween-80 95 % of control

CCN(CC)[P+](c1ccccc1O)(N(CC)CC)N(CC)CC
inactive: endpoint: mean survival time, dose: 0.39 mg/kg/injection, schedule: Q01DX009 (ip), vehicle: saline 103 % of control | endpoint: mean survival time, dose: 0.78 mg/kg/injection, schedule: Q01DX009 (ip), vehicle: saline 104 % of control | endpoint: mean survival time, dose: 1.56 mg/kg/injection, schedule: Q01DX009 (ip), vehicle: saline 109 % of control | endpoint: mean survival time, dose: 6.25 mg/kg/injection, schedule: Q01DX009 (ip), vehicle: saline 92 % of control

Cn1cnc2cc(N)ccc21
inactive: [4] 95 % of control | [5] 98 % of control | endpoint: mean survival time, dose: 200.0 mg/kg/injection, schedule: Q01DX009 (ip), vehicle: saline 98 % of control

CCN(CC)Cc1cc(O)ccc1NCCCNc1ccnc2cc(Cl)ccc12
inactive: [6] 96 % of control

O=C1/C(=C/c2ccccc2)CCS(=O)(=O)c2ccccc21
inactive: [1] 97 % of control | [2] 97 % of control | [3] 90 % of control

O=C(O)CN(CCO)CCN(CC(=O)O)CC(=O)O
inactive: [7] 102 % of control | [8] 108 % of control | [9] 105 % of control | [10] 104 % of control

CC(=O)OCC1OC(n2ncnc2CBr)C(OC(C)=O)C(OC(C)=O)C1OC(C)=O (centres undefined)
inactive: endpoint: median survival time, dose: 12.5 mg/kg/injection, schedule: Q01DX005 (ip), vehicle: distilled water + Tween-80 108 % of control | endpoint: median survival time, dose: 25.0 mg/kg/injection, schedule: Q01DX005 (ip), vehicle: distilled water + Tween-80 97 % of control | endpoint: median survival time, dose: 50.0 mg/kg/injection, schedule: Q01DX005 (ip), vehicle: distilled water + Tween-80 104 % of control

CNC1CCCCC1[N+](C)(C)C (centres undefined)
inactive: endpoint: mean survival time, dose: 5.0 mg/kg/injection, schedule: Q01DX009 (ip), vehicle: saline 98 % of control | endpoint: mean survival time, dose: 5.0 mg/kg/injection, schedule: Q04DX003 (ip), vehicle: saline 103 % of control | endpoint: mean survival time, dose: 10.0 mg/kg/injection, schedule: Q01DX009 (ip), vehicle: saline 101 % of control | endpoint: mean survival time, dose: 10.0 mg/kg/injection, schedule: Q04DX003 (ip), vehicle: saline 101 % of control | endpoint: mean survival time, dose: 20.0 mg/kg/injection, schedule: Q01DX009 (ip), vehicle: saline 96 % of control | endpoint: mean survival time, dose: 20.0 mg/kg/injection, schedule: Q04DX003 (ip), vehicle: saline 98 % of control

CCCCN(CCCC)CCCN(CCCOS(C)(=O)=O)CCCOS(C)(=O)=O
active: [4] 162 % of control | [10] 160 % of control
inactive: endpoint: mean survival time, dose: 12.0 mg/kg/injection, schedule: Q01DX001 (ip), vehicle: saline 110 % of control | [11] 121 % of control | endpoint: mean survival time, dose: 12.5 mg/kg/injection, schedule: Q04DX003 (ip), vehicle: saline 110 % of control | endpoint: mean survival time, dose: 25.0 mg/kg/injection, schedule: Q01DX001 (ip), vehicle: saline 114 % of control | endpoint: mean survival time, dose: 25.0 mg/kg/injection, schedule: Q04DX003 (ip), vehicle: saline 117 % of control | [5] 102 % of control | endpoint: mean survival time, dose: 200.0 mg/kg/injection, schedule: Q01DX001 (ip), vehicle: saline 90 % of control

C[n+]1c(O)c(C(=O)CCl)n2cc([N+](=O)[O-])ccc21
inactive: endpoint: mean survival time, dose: 12.5 mg/kg/injection, schedule: Q01DX009 (ip), vehicle: acetone 95 % of control | endpoint: mean survival time, dose: 25.0 mg/kg/injection, schedule: Q01DX009 (ip), vehicle: acetone 101 % of control | endpoint: mean survival time, dose: 50.0 mg/kg/injection, schedule: Q01DX009 (ip), vehicle: acetone 90 % of control

C=C(Cl)CSCCO
inactive: [9] 100 % of control | [12] 104 % of control | [13] 98 % of control

O=N[O-].[Co].[NH2-].[NH2-].[NH2-].[NH2-].[NH2-]
inactive: [11] 103 % of control | endpoint: mean survival time, dose: 25.0 mg/kg/injection, schedule: Q01DX003 (ip), vehicle: saline 93 % of control | endpoint: mean survival time, dose: 25.0 mg/kg/injection, schedule: Q01DX009 (ip), vehicle: saline 103 % of control | endpoint: mean survival time, dose: 50.0 mg/kg/injection, schedule: Q01DX003 (ip), vehicle: saline 100 % of control | [4] 105 % of control

CCOC(=O)Nc1cc(NCC(O)CN(C)c2ccccc2)c([N+](=O)[O-])c(NC(=O)OCC)n1 (centres undefined)
inactive: endpoint: mean survival time, dose: 100.0 mg/kg/injection, schedule: Q01DX001 (ip), vehicle: carboxymethylcellulose (CMC) 96 % of control | endpoint: mean survival time, dose: 200.0 mg/kg/injection, schedule: Q01DX001 (ip), vehicle: carboxymethylcellulose (CMC) 91 % of control | endpoint: mean survival time, dose: 400.0 mg/kg/injection, schedule: Q01DX001 (ip), vehicle: carboxymethylcellulose (CMC) 87 % of control

OC(c1ccccc1)C1CCN(Cc2ccccc2)CC1 (centres undefined)
inactive: [6] 96 % of control

CCCN1C(=O)C=CC1=O
inactive: [1] 91 % of control

Cc1ccc(S(=O)(=O)N2CCC(=O)c3ccccc32)cc1
inactive: [9] 95 % of control | [6] 101 % of control | [12] 97 % of control | [14] 98 % of control | [13] 95 % of control | [15] 103 % of control

CN(C)c1ccc(C(=O)c2ccc(N(C)C)cc2)cc1
inactive: [9] 96 % of control | [12] 102 % of control | [13] 109 % of control

CCOP(=O)(OCC)C(C(C)C)N(C)C (centres undefined)
inactive: [1] 103 % of control | [2] 101 % of control | [3] 98 % of control

ClC12CCC(CC1)C2
inactive: [10] 100 % of control | [16] 94 % of control | [17] 100 % of control

CN(C)CC1CCCC12OCCO2 (centres undefined)
inactive: endpoint: mean survival time, dose: 75.0 mg/kg/injection, schedule: Q01DX001 (ip), vehicle: other 100 % of control | endpoint: mean survival time, dose: 150.0 mg/kg/injection, schedule: Q01DX001 (ip), vehicle: other 96 % of control | endpoint: mean survival time, dose: 300.0 mg/kg/injection, schedule: Q01DX001 (ip), vehicle: other 106 % of control

C=C.O=C(O)/C=C\C(=O)O.[Mn]
inactive: endpoint: mean survival time, dose: 1.0 mg/kg/injection, schedule: Q01DX009 (ip), vehicle: saline with Tween-80 95 % of control | endpoint: mean survival time, dose: 1.0 mg/kg/injection, schedule: Q04DX003 (ip), vehicle: saline with Tween-80 97 % of control | endpoint: mean survival time, dose: 2.0 mg/kg/injection, schedule: Q01DX009 (ip), vehicle: saline with Tween-80 95 % of control | endpoint: mean survival time, dose: 2.0 mg/kg/injection, schedule: Q04DX003 (ip), vehicle: saline with Tween-80 95 % of control | endpoint: mean survival time, dose: 4.0 mg/kg/injection, schedule: Q04DX003 (ip), vehicle: saline with Tween-80 91 % of control

Nc1ccc2c(c1)CN1C(=O)c3ccccc3C1=N2
inactive: endpoint: median survival time, dose: 12.5 mg/kg/injection, schedule: Q01DX009 (ip), vehicle: saline with Tween-80 111 % of control | endpoint: median survival time, dose: 25.0 mg/kg/injection, schedule: Q01DX009 (ip), vehicle: saline with Tween-80 115 % of control | endpoint: median survival time, dose: 50.0 mg/kg/injection, schedule: Q01DX009 (ip), vehicle: saline with Tween-80 116 % of control | endpoint: median survival time, dose: 100.0 mg/kg/injection, schedule: Q01DX009 (ip), vehicle: saline with Tween-80 108 % of control

CC(=O)SCCNCCOCCC#N
inactive: [9] 97 % of control | [10] 95 % of control | [12] 101 % of control | [16] 101 % of control | [13] 95 % of control | [17] 101 % of control

CCCCCCCCCCCCCCCCCCN1CCOCC1
inactive: [18] 94 % of control | [7] 102 % of control | [8] 94 % of control

CC(Cc1ccccc1)NC(N)=O (centres undefined)
inactive: [18] 100 % of control | [7] 97 % of control | [8] 92 % of control

Cc1c(N=[N+]=[N-])c(NS(=O)(=O)c2ccccc2)c(C)c(N=[N+]=[N-])c1NS(=O)(=O)c1ccccc1
inactive: [6] 96 % of control | [14] 93 % of control | [15] 93 % of control
